Data on one compound can be found in paper PMC3214022, “Plasmodium falciparum Parasites Are Killed by a Transition State Analogue of Purine Nucleoside Phosphorylase in a Primate Animal Model” (PLoS ONE, 2011).

Each structure is given as a SMILES string. Several values for one entry are separate records, joined by “and”; a condition that tells them apart may be missing. Equal entries are not always repeated.

The subject of one series is human erythrocytes. The series can be described thus: Polyamine and purine levels in cultured cells after BCX4945 treatment (HPLC, UPLC/MS/MS). In kind it is cell-based. The conditions noted are these: uninfected erythrocytes, 5 µM BCX4945, 24 h. How it is done:
Polyamines from 0.5 M PCA extracts were analyzed as the dansyl-derivatives by HPLC/fluorescence on a Waters Millennium system. Protein concentration was determined with a bicinchoninic acid (BCA) protein assay kit according to the manufacturer's instructions (Pierce) using BSA as a standard. Data from biological samples were normalized to the protein content.
(§1) Samples from blood cells, plasma and media were extracted and analyzed in duplicate. […] Samples were incubated for 20 min at 4 °C and neutralized with 5 M KOH at 10∶1 (v/v, HClO4/KOH) for 20 min at 4 °C. Plates were centrifuged (10 min at 4,000 rpm, 4°C) and supernatants were filtered through a MultiScreen® Filter Plate with Ultracel®-10 Membrane (Millipore). Metabolite and inhibitor levels were quantified by UPLC/MS/MS using a Xevo TQ mass spectrometer (Waters). […] Quantitative determination was performed in ESI positive-ion mode using multiple-reaction monitoring (MRM) mode. The ESI capillary voltage was 0.3 kV, source temperature was set at 150 °C and desolvation temperature at 450 °C. Data acquisition and analysis were carried out by MassLynx V4.1 and QuanLynx software (Waters). The concentration of the metabolites was calculated by interpolation of the observed analyte/internal standard peak-area ratio with the corresponding calibration curve.

The test system of series [1] is purine salvage (hypoxanthine, inosine, adenosine, 2′-deoxyguanosine). The series can be described thus: Purine metabolites in plasma and blood cells of treated Aotus monkeys (UPLC-MS/MS). Format: in vivo, Aotus lemurinus lemurinus. How it is done:
as §1
(§2) Laboratory bred Aotus lemurinus lemurinus monkeys (0.75–0.89 kg) were maintained as described. […] Blood samples were collected before the treatment started (t = 0), 0.05 h, 0.5 h, 1 h, 2 h, 6 h, 24 h, 48 h, and 6, 12 and 18 days after the first dose from each monkey and processed as described below. Pharmacokinetic parameters were calculated using PKSolver. For efficacy studies, Aotus monkeys were inoculated intravenously with 5×10^6 parasites of the FVO strain of P. falciparum in an approved treatment protocol. […] Parasitaemia was determined by Giemsa-stained thick blood smears prepared daily from the marginal ear vein [41]. Blood samples were collected from each monkey and transferred to tubes containing lithium heparin, centrifuged and both plasma and blood cells were frozen at −80 °C until analysis. Animals received a physical examination and blood chemistry profiles were monitored after treatment as described previously. Any monkey not responding appropriately to treatment was cured of its infection with mefloquine (40 mg kg^−1). […] The day of clearance is defined as the first of three consecutive days in which the thick blood films are parasite negative. The day of recrudescence is the first of three consecutive days of positive thick blood films after a period of clearance. Suppression is defined as a transient decrease in the parasite count post-treatment without clearance.

The nature of series [2]: Weights, CBC and blood chemistry, Table S1 sheet PK (pharmacokinetic study). Format: in vivo, Aotus lemurinus lemurinus. As for the experimental part: as §2
The mark [3] stands for this setting: infected Aotus under BCX4945 treatment.

As for `Nc1nc2c(CN3CC(O)C(CO)C3)c[nH]c2c(=O)[nH]1` (stereo not drawn) [BCX4945, 4′-deaza-1′-aza-2′-deoxy-1′-(9-methylene)-Immucillin-G], in the series with human erythrocytes, the “Adenosine, cell pellet” value is 2.60±0.03 (0.2) nmoles/mg protein; the “Adenosine, supernatant” value is 0.6±0.2 (0.2) µM; the “BCX4945 level, cell pellet” value is reported as 36±12 (0.07) nmoles/mg protein; the “BCX4945 level, supernatant” value is 4.0±0.2 (0.01) µM. In addition, in the series with human erythrocytes, the “Hypoxanthine, cell pellet” value is listed as 0 nmoles/mg protein; the “Hypoxanthine, supernatant” value is listed as 0 (0.04) µM; the “Inosine, cell pellet” value is on record as 37±6 (0.04) nmoles/mg protein; the “Inosine, supernatant” value is 8±3 (0.08) µM. Also, in the series with human erythrocytes, the “MTA, cell pellet” value turned out to be 0 nmoles/mg protein; the “MTA, supernatant” value is 0 µM; the “MTI, cell pellet” value is given as 0 nmoles/mg protein; the “MTI, supernatant” value is listed as 0 µM. Besides, in the series on human erythrocytes, the “Putrescine, cell pellet” value amounted to 0 nmoles/mg protein; the “Spermidine, cell pellet” value was determined as 0.060±0.003 nmoles/mg protein; the “Spermine, cell pellet” value is recorded as 0.030±0.002 nmoles/mg protein. Besides, the “hypoxanthine in plasma throughout the treatment period” value in series [1] (50 mg kg^−1 per dose twice a day) worked out at 0.3 ± 0.2 µM. Moreover, the “2′-deoxyguanosine levels in plasma and blood cells” value in series [1] (BCX4945 treatment) is reported as “increased”. In series [1] (setting [3]), the “hypoxanthine concentration in plasma and blood cells” value is recorded as “below 0.3 µM”; the “inosine concentration in plasma and blood cells” value is “above 50 µM”. The “hypoxanthine reappearing in the blood” value in series [1] (infected animals, three days after the end of three-day oral treatment) was roughly 30 µM. Also, the Creatine in series [2] (IV 10 mg/kg once a day/3 days, monkeys 21014 (c1-5), 21007 (c6-10), 22014 (c11-15), 22004 (c16-20), days -2, 6, 12, 18 (22004: 19), 79, 10 mg/kg, day 12) is 0.55 mg/dL and 0.532 mg/dL. In addition, the Creatine in series [2] (IV 10 mg/kg once a day/3 days, monkeys 21014 (c1-5), 21007 (c6-10), 22014 (c11-15), 22004 (c16-20), days -2, 6, 12, 18 (22004: 19), 79, 10 mg/kg, day -2) was <0.5 mg/dL and 0.5 mg/dL. Further, the “Blood Urea Nitrogen” value in series [2] (oral, one dose 50 mg/kg, monkey 23015, days -2, 6, 12, 19, 79 = c1-c5, 50 mg/kg) is less than 10.0 mg/dL. This compound also showed a Creatine in series [2] (oral, three doses 50 mg/kg once a day/3 days, monkey 23029, days -2, 6, 12, 19, 79 = c11-c15) of less than 0.5 mg/dL.
